According to patent US20060100175A1, “Novel therapeutic use of low molecular weight heparins” (Aventis Pharma S.A., priority 1998, published 2006):

Tested on: motoneurons plated on astrocyte monolayers
Experiment: Potentiation effect on the stimulation of the trophic motoneuron activity (SIN-1 treated astrocyte monolayers)
Type: cell-based, rat
Settings: SIN-1 2 mM, 1 hour on astrocyte monolayers
Procedure: The cultures enriched in motoneurons are prepared using the centrifugation method described by R. L. Schnaar and A. E. Schaffner, J. Neurosci., 1, 204-217 (1981) and modified by W. Camu and C. E. Henderson, J. Neurosci. Methods, 44, 59-70 (1992). Spinal cords from E15 rat embryos are dissected sterilely and the spinal notochords are removed. They are then cut up and incubated for 15 minutes at 37° C. in PBS (phosphate buffered saline: 137 mM NaCl, 2.68 mM KCl, 6.45 mM Na2HPO4, 1.47 mM KH2PO4) to which 0.05% of trypsin has been added. The dissociation of the cells is completed by trituration with the end of a 1 ml pipette in the culture medium supplemented with bovine serum albumin (BSA) and with DNAase. The cell suspension is spread onto a band of 6.5% weight/volume metrizamide in L15 medium (sold by Gibco BRL) and centrifuged at 500 g for 15 minutes. The band of the interface containing the motoneurons is recovered. […]
The number of motoneurons is evaluated by counting labeled cells in a surface area of 1.44 cm^2 under a microscope giving a 200-fold magnification. The values are expressed as a number of motoneurons per cm^2 or a percentage of the number of motoneurons present in the cultures maintained with trophic factors (BDNF/NT5 […]). […]

How did the “Number of motoneurons % with respect to the control” value turn out when `[NH-]c1c[n+](N2CCOCC2)no1` [SIN-1] was run?
The value was 125%.
